Test results published in patent US9796674B2, “Benzyl urea derivatives for activating TGF-beta signaling” (THE BOARD OF TRUSTEES OF THE LELAND STANFORD JUNIOR …, priority 2013, dated 2017).

How the values were obtained:
B103 neuroblastoma cells = assay: B103 live/dead cell assay with Aβ; assay type: cell-based, rat; conditions: Aβ 24 h; added 2 h before Aβ
Experimental: SRI-11381 is neuroprotective in vitro: To determine if the TGF-β-inducing capacity of SRI-011381 would translate into biologically beneficial effects, its neuroprotective potential was tested in B103 rat neuroblastoma cells and primary mouse neurons derived from E16 forebrains. B103 neuroblastoma cells were cultured in 24-well plates and exposed to an oligomeric preparation of Aβ together with compounds or recombinant TGF-β.
FIGS. 3A-3H illustrate that SRI-011381 protects cultured neurons from Aβ toxicity. B103 neuroblastoma cells were incubated with Aβ for 24 h. The compounds and TGF-β were added 2 h before Aβ. Following incubations live and dead cells were assessed with calcein-acetoxymethylester (CAM) and SYTOX Orange (Invitrogen), respectively.
B103 neuroblastoma cells: B103 neuroblastoma cells were cultured in Dulbecco's modified Eagle's medium containing 10% fetal calf serum and 1% v/v penicillin/streptomycin (Invitrogen) in a 5% CO2: 95% air atmosphere. 10^4 cells/well were seeded onto 24 well plates and cultured for 24 h before Aβ was added. The compounds and TGF-β were added 2 h before Aβ. Following a 24 h incubation with Aβ, live and dead cells were assessed using calcein-acetoxymethylester (CAM) and SYTOX Orange (Invitrogen), respectively. AM is a membrane-permeable, fluorogenic esterase substrate that is hydrolyzed intracellularly to a green fluorescent product (calcein) in live cells. SYTOX Orange is a high-affinity nucleic acid stain that easily penetrates cells with compromised plasma membranes and yet will not cross the membranes of live cells. After incubation with SYTOX Orange, the nucleic acids of dead cells fluoresce bright orange. […] Five fields were randomly selected from each well and the cell numbers were analyzed by ImageJ (NIH) in a blinded fashion.

hippocampal neurons = assay: Aβ-induced neuritic dystrophy in primary hippocampal neurons; assay type: cell-based, mouse; conditions: for average numbers of dystrophic neurites per neuron: 21-22 DIV, 5 μM Aβ, 48 h
Experimental: Primary hippocampal neurons isolated from E16 CF1 embryos were aged for 6-7 days or 21-22 days, then challenged with 5 μM oligomeric Aβ in the presence or absence of compounds, and assayed for neurotoxicity (cell survival as above) or neuritic dystrophy, respectively. For quantification of neuritic dystrophy, fixed cells were immune-stained with a MAP-2 monoclonal antibody to label dendrites.
Primary hippocampal neurons were isolated from E16 CF1 embryos. Twenty-four-well culture plates were coated with 10 μg/ml poly-L-lysine. Cells were seeded overnight at a density of 30,000 cells/well in DMEM/F-12 medium supplemented with 10% FBS and penicillin/streptomycin, and subsequently maintained in Neurobasal medium containing 2% B27 supplement. Cells were aged for 6-7 days or 21-22 days, then challenged with 5 μM Aβ in the presence or absence of compounds, and assayed for neurotoxicity or neuritic dystrophy, respectively. Cells were treated for 72 h for neurotoxicity assay and 48 h for neuritic dystrophy assay. At the end of treatment, an equal volume of 4% PFA was added, plates incubated at room temperature for 15 min and then washed three times with DPBS. Cells were kept in the last wash of DPBS at 4° C. until being counted or stained.
For quantification of neuritic dystrophy, fixed cells were immunostained with a MAP-2 monoclonal antibody (Sigma-Aldrich). […] MAP2 positive dendrites were observed under an inverted fluorescence microscope (Olympus). […] To quantify neurite curvature, an established method was modified for assessment of neurite curvature. Neurite tracks were digitized and approximated by a series of connected line segments using ImageJ (NIH). The angle of each segment was determined using a Sigmaplot macro, and the results were averaged to give the ‘mean differential curvature’. This parameter reflects the degree of neurite curvature with an increasing value indicating increased curvature. Neurite counting and quantification were performed in randomly selected fields (5 fields/well). All quantitative assessments were done by investigators blinded with respect to treatment conditions.

TGF-β signaling = assay: Bioluminescence in SBE-luc reporter mice; assay type: in vivo, mouse; conditions: brain/CNS bioluminescence
Experimental: The most promising compounds out of these screens were tested for their neuroprotective potential in B103 rat neuroblastoma cells and primary mouse neurons derived from E16 forebrains. Compounds were also tested for their capacity to reduce varicosities and tortuosity in primary mouse neurons. Accordingly, novel neuroprotectant small molecules have been identified that are as potent or better than TGF-β. Importantly, they fulfilled the critical neuroprotective properties in neuronal cell lines and primary hippocampal mouse neurons. • Compounds based on the 11H core: The present compositions and methods include salts of the active compounds and formulations, in particular pharmaceutically acceptable compositions for administration to an animal or human subject and containing active compounds. 129 analogs or derivatives of 11H were screened by a cell-based assay for their ability to increase TGF-β activity, i.e. to act as a TGF agonist. In particular, one compound (a) designated as SRI-011381 (381) was identified as especially advantageous, although active derivatives thereof are contemplated and have been identified. • Effects of TGF-β analogs in vitro: Some of the small-molecule TGF-β agonist compounds were tested for neuroprotection activity and toxicity in vitro (cell culture). In addition, the mechanism of action of the agonists was explored using cells with different genetic backgrounds with respect to protein of the […] signaling pathway. • Animal studies: Transgenic mice harboring the SBE-luc reporter gene were generated and used to test the derivatives of compound 11H in vivo. These “reporter mice” mice express SBE-luc (i.e., “the transgene”) in all cells of the body. Intraperitoneal injection of luciferin into SBE-luc-expressing mice produces bioluminescence generated by luciferase and photons penetrating the skull can be imaged using sensitive camera systems.
SBE-luciferase transgenic mice: Two-month old SBE-luciferase transgenic mice receive different concentrations of a test compound either s.q., ip., or orally by gavage. […] Following administration of the test or control compounds, mice are injected with luciferin ip. At, for example, 2, 8, and 16 hours following injection of luciferin, the mice are imaged to detect bioluminescence as described above. Brains may be harvested 16 hours following test compound injection, and may be divided sagittally. For example, one hemi-brain can be homogenized in luciferase assay buffer for measurement of reporter gene activation, while the other hemi-brain can be frozen at −70° C. for future study, including sectioning into individual brain regions

| Molecule | Aβ-induced cell death (B103 neuroblastoma cells) | Aβ-induced increase in neurite curvature (mean differential curvature) (hippocampal neurons) | average numbers of dystrophic neurites per neuron (hippocampal neurons) | activation of TGF-β signaling in SBE-luc reporter mice (TGF-β signaling) |
| --- | --- | --- | --- | --- |
| TGF-β1: Transforming Growth Factor-β, recombinant cytokine used as comparator | inhibit Aβ-induced cell death | prevented | markedly reduced |  |
| C/C(=C\c1ccccc1)CN(CC1CCNCC1)C(=O)NC1=CCC=CC1 [Compound 11H, reference compound] |  |  | markedly reduced | penetrate into the CNS and activate TGF-β signaling |
